Patent publication US11401253B2, “16-methyl-oxacyclohexadecan-2-one and 16-methyl-azacyclohexadecan-2-one derivatives as antimicrobial agents” (THE UNIVERSITY OF MONTANA, priority 2017, dated 2022)
≈ marks a conversion by molar mass, not a printed value. Where “and” joins values, the source holds several entries; their conditions need not be identical. Equal entries are not always repeated.

Legend:
[1] = test system: S. aureus CAIRD148; test: Antibiotic testing, methicillin-resistant S. aureus CAIRD148; type: cell-based; details: methicillin-resistant strain; for MIC: Staphylococcus aureus, CAIRD148
From the text: (§1) Both the methyl ester and the diacetate derivatives of BPL 76 slightly less but still very strong activity against the same four MRSA strains (Table 11). The activities of compounds BPL 76 and BPL 81 were compared to several known antibiotics against three methicillin-resistant strains of S. aureus [FIG. 6, comparative data provided by Hartford Hospital, Center for Anti-Infective Research and Development (CAIRD)].

[2] = test system: J774; test: Cytotoxicity (MTS), J774 cells; type: cell-based, murine; details: Mus musculus, 72 hours exposure
[3] = test system: Enterococcus faecalis; test: Antibiotic testing (MIC), Enterococcus faecalis; type: cell-based; details: growth inhibition ≥90%, read-out: minimum inhibitory concentration, Enterococcus faecalis
[4] = test system: S. aureus CAIRD116; test: Antibiotic testing, methicillin-resistant S. aureus CAIRD116; type: cell-based; details: methicillin-resistant strain; for MIC: Staphylococcus aureus, CAIRD116
From the text: as §1

[5] = test system: Candida glabrata; test: Antibiotic testing (MIC), Candida glabrata; type: cell-based; details: Nakaseomyces glabratus; growth inhibition ≥90%; read-out: minimum inhibitory concentration, Candida glabrata
[6] = test system: S. aureus CAIRD142; test: Antibiotic testing, methicillin-resistant S. aureus CAIRD142; type: cell-based; details: methicillin-resistant strain; for MIC: Staphylococcus aureus, CAIRD142
From the text: as §1

[7] = test system: P. aeruginosa; test: Antibiotic testing (MIC), gram negative P. aeruginosa; type: cell-based; details: Pseudomonas aeruginosa; read-out: MIC, P. aeruginosa
Method: (§2) None of this collection of compounds were active against Gram-negative bacteria
(§3) Additionally, BPL 76 and derivatives were tested against a panel of gram negative bacteria including K. pneumonia, P. aeruginosa and E. coli (Table 12).

[8] = test system: Mycobacterium tuberculosis; test: microbe, parasite or virus in culture; details: read-out: MIC, MABA
[9] = test system: S. aureus (NE277); test: Antibiotic testing, methicillin-resistant S. aureus NE277; type: cell-based; details: for MIC: Staphylococcus aureus, read-out: antibiotic testing data (MIC), S. aureus (NE277)
From the text: as §1

[10] = test system: Vero cell; test: Cytotoxicity (MTS), Vero cells; type: cell-based, monkey; details: Primates, 72 hours exposure
[11] = test system: Staphylococcus aureus (13709); test: Antibiotic testing (MIC), S. aureus 13709; type: cell-based; details: growth inhibition ≥90% relative to drug-free controls, read-out: minimum inhibitory concentration, Staphylococcus aureus (13709)
[12] = test system: C. albicans; test: Antibiotic testing (MIC), C. albicans; type: cell-based; details: Candida albicans; growth inhibition ≥90%; read-out: minimum inhibitory concentration, C. albicans
[13] = test system: non-replicating persistence Mycobacterium tuberculosis (NRP-TB); test: Low oxygen recovery assay (LORA), non-replicating persistence Mtb; type: cell-based; details: for MIC: Mycobacterium tuberculosis, non-replicating persistence, hypoxic conditions, read-out: MIC, LORA
[14] = test system: HepG2; test: Cytotoxicity (MTS), HepG2 cells; type: cell-based; details: Homo sapiens, 72 hours exposure
[15] = test system: K. pneumoniae (10031); test: Antibiotic testing (MIC), gram negative K. pneumoniae; type: cell-based; details: Klebsiella pneumoniae; read-out: MIC, K. pneumoniae (10031)
Method: as §2, §3

[16] = test system: Streptococcus pyogenes; test: Antibiotic testing (MIC), Streptococcus pyogenes; type: cell-based; details: growth inhibition ≥90%, read-out: minimum inhibitory concentration, Streptococcus pyogenes
[17] = test system: E. coli (25922); test: Antibiotic testing (MIC), gram negative E. coli; type: cell-based; details: Escherichia coli; read-out: MIC, E. coli (25922)
Method: as §2, §3

[18] = test system: B. anthracis; test: microbe, parasite or virus in culture; type: cell-based; details: Bacillus anthracis, read-out: minimum inhibitory concentration, B. anthracis
[19] = test system: Bacillus subtilis; test: Antibiotic testing (MIC), Bacillus subtilis; type: cell-based; details: growth inhibition ≥90%, read-out: minimum inhibitory concentration, Bacillus subtilis
[20] = test system: GFP synthesis; test: Cell-free translation assay with GFP reporter; type: biochemical; details: 50 μM, 37° C., readings for 2 hr
Method: Further assessment of the effect of BPL76 on protein translation was done using a cell-free translation assay. The plasmid pY71-sfGFP^55 (5 ng) was translated in the PUREexpress in vitro protein synthesis system (New England Biolabs). The final concentrations of erythromycin, josamycin and tylosin in the translation reactions were 50 μM. The reactions were incubated at 37° C. and fluorescence readings (excitation: 488 nm, emission, 520 nm) were taken every 20 min for 2 hr.

[21] = test system: Mycobacterium tuberculosis; details: MABA
[22] = target: T1, MMP-3 (Homo sapiens, UniProt P08254); test: MMP-3 enzyme inhibition assay; type: biochemical
T1 construct: purchased BioMol
T1 sequence (P08254 100-477): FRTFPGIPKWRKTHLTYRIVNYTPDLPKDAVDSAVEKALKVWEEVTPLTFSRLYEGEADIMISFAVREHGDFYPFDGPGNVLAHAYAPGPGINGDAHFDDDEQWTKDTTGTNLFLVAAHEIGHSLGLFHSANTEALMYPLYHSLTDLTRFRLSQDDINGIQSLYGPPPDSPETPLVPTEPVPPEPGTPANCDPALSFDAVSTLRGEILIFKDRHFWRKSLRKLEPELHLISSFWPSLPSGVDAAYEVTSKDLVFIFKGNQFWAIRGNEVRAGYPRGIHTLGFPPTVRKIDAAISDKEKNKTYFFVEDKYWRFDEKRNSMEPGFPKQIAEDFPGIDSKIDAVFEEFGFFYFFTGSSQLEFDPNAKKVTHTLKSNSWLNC
Method: The two fungi were also co-cultured under controlled conditions. P. fuscum was grown in pure culture in potato dextrose broth (10×400 mL). After 24 h, an agar cube (8 mm^3) impregnated with P. camembertii/clavigerum mycelium was added to each flask and the resulting co-culture was shaken for 6 more days (200 rpm, room temperature). At time of harvest, methanol (50 mL/flask) was added, the mycelia were removed by gravity filtration and the broth was extracted with chloroform (3×2 L). The chloroform was removed in vacuo to yield 663 mg of crude extract. The crude extract was verified to be active in the MMP-3, caspase-1 and caspase-3 enzyme inhibition assays. Enzyme inhibitory activity was determined using specific BioMol enzyme inhibition assay kits for drug discovery as described in Stierle, A; Stierle, D. The Berkeleylactones, Antibiotic Macrolides from Fungal Coculture. J. Nat. Prod. 80, 4, 1150-1160.

Row | Structure (SMILES) | MIC [1] [µg/mL] | IC50 [2] [µg/mL] | MIC [3] [µg/mL] | MIC [4] [µg/mL] | MIC [5] [µg/mL] | MIC [6] [µg/mL] | MIC [7] [µM] | MIC [8] [µg/mL] | MIC [9] [µg/mL] | IC50 [10] [µg/mL] | MIC [11] [µg/mL] | MIC [12] [µg/mL] | MIC [13] [µg/mL] | IC50 [14] [µg/mL] | MIC [15] | MIC [16] [µg/mL] | MIC [17] | MIC [18] [µg/mL] | MIC [19] [µg/mL] | inhibition of GFP synthesis and corresponding fluorescence [20] | also measured
1 | COC(=O)[C@H](O)CS[C@@H]1CC(=O)[C@@H](O)CCCCCCCCC[C@@H](C)OC1=O [BPL 76-Me ester, methyl (S)-2-hydroxy-3-(((3R,6S,16R)-6-hydroxy-16-methyl-2,5-dioxooxacyclohexadecan-3-yl)thio)propanoate] | 2 (≈ 4.78 µM) | 38 (≈ 90.8 µM) | 3 (≈ 7.17 µM) | 2 (≈ 4.78 µM) | 7 (≈ 16.7 µM) | 2 (≈ 4.78 µM) | > 250 | 32 (≈ 76.5 µM) | 2 (≈ 4.78 µM) | 74 (≈ 177 µM) | 1 (≈ 2.39 µM) | 13 (≈ 31.1 µM) | 19 (≈ 45.4 µM) | 55.6 (≈ 133 µM) | 250 µM and 105 µg/mL | 3 (≈ 7.17 µM) | 125 µM and 52.3 µg/mL | 1 (≈ 2.39 µM) | 3 (≈ 7.17 µM) |  | 
2 | COC(=O)[C@@H](CS[C@@H]1CC(=O)[C@@H](OC(C)=O)CCCCCCCCC[C@@H](C)OC1=O)OC(C)=O [BPL 76-diacetate, methyl (S)-2-acetoxy-3-(((3R,6S,16R)-6-acetoxy-16-methyl-2,5-dioxooxacyclohexadecan-3-yl)thio)propanoate] | 4 (≈ 7.96 µM) |  | 15 (≈ 29.8 µM) | 4 (≈ 7.96 µM) | > 125 | 7 (≈ 13.9 µM) | > 125 |  | 4 (≈ 7.96 µM) |  | 2 (≈ 3.98 µM) | > 125 |  |  | > 125 µM | 15 (≈ 29.8 µM) | > 125 µM | 4 (≈ 7.96 µM) | 7 (≈ 13.9 µM) |  | 
3 | CO[C@@H]1[C@@H](O[C@@H]2O[C@H](C)[C@@H](O[C@H]3C[C@@](C)(O)[C@@H](OC(=O)CC(C)C)[C@H](C)O3)[C@H](N(C)C)[C@H]2O)[C@@H](CC=O)C[C@@H](C)[C@@H](O)/C=C/C=C/C[C@@H](C)OC(=O)C[C@H]1OC(C)=O [josamycin] |  |  |  |  |  |  |  |  |  |  |  |  |  |  |  |  |  |  |  | effectively inhibited | 
4 | CC[C@H]1OC(=O)[C@H](C)[C@@H](O[C@H]2C[C@@](C)(OC)[C@@H](O)[C@H](C)O2)[C@H](C)[C@@H](O[C@@H]2O[C@H](C)C[C@H](N(C)C)[C@H]2O)[C@](C)(O)C[C@@H](C)C(=O)[C@H](C)[C@@H](O)[C@]1(C)O [erythromycin] |  |  |  |  |  |  |  |  |  |  |  |  |  |  |  |  |  |  |  | effectively inhibited | 
5 | CC[C@H]1OC(=O)C[C@@H](O)[C@H](C)[C@@H](O[C@@H]2O[C@H](C)[C@@H](O[C@H]3C[C@@](C)(O)[C@@H](O)[C@H](C)O3)[C@H](N(C)C)[C@H]2O)[C@@H](CC=O)C[C@@H](C)C(=O)/C=C/C(C)=C/[C@@H]1CO[C@@H]1O[C@H](C)[C@@H](O)[C@@H](OC)[C@H]1OC [tylosin] |  |  |  |  |  |  |  |  |  |  |  |  |  |  |  |  |  |  |  | effectively inhibited | 
6 | C[C@@H]1CCCCCCCCC[C@H](OC(=O)CCC(=O)O)[C@H](O)/C=C/C(=O)O1 [BPL 84, 4-(((5R,6S,16R,E)-5-hydroxy-16-methyl-2-oxooxacyclohexadec-3-en-6-yl)oxy)-4-oxobutanoic acid] | > 90 | > 100 |  | > 90 | > 90 | > 90 | > 250 | > 100 | > 90 | > 100 | 45 (≈ 117 µM) | > 90 | > 100 | > 100 | > 250 µM | > 90 | > 250 µM | > 90 | > 90 |  | antibiotic testing data (MIC), S. aureus CAIRD148 [1]: >250 µM; antibiotic testing data (MIC), S. aureus CAIRD116 [4]: >250 µM; activity against replicating Mtb (in words) [21]: not active; antibiotic testing data (MIC), S. aureus CAIRD142 [6]: >250 µM; antibiotic testing data (MIC), S. aureus (NE277) ([9]; methicillin-resistant strain): >250 µM; activity against non-replicating Mtb (in words) ([13]; LORA): not active; MMP-3 inhibition [22]: weaker inhibitors
7 | C[C@@H]1CCCCCCCCC[C@H](OC(=O)CCC(=O)O)C(=O)C[C@@H](SC[C@@H](O)C(=O)O)C(=O)O1 [BPL 88, 4-(((3R,6S,16R)-3-(((S)-2-carboxy-2-hydroxyethyl)thio)-16-methyl-2,5-dioxooxacyclohexadecan-6-yl)oxy)-4-oxobutanoic acid] | 8 (≈ 15.9 µM) | 42.5 (≈ 84.3 µM) | 31 (≈ 61.4 µM) | 15 (≈ 29.7 µM) | 31 (≈ 61.4 µM) | 15 (≈ 29.7 µM) | > 250 | > 100 | 8 (≈ 15.9 µM) | > 100 | 4 (≈ 7.93 µM) | > 119 | 46 (≈ 91.2 µM) | > 100 | > 250 µM | 119 (≈ 236 µM) | > 250 µM | 8 (≈ 15.9 µM) | 31 (≈ 61.4 µM) |  | MMP-3 inhibition [22]: weaker inhibitors
